# From US20250263370A1 (Tay Therapeutics Limited, priority 2022, published 2025)
# Entries after “also recorded” stand apart in the source; their conditions may differ. Where two headings read alike, the source gives them in different places.
# Experiments:
# BRD4 BD1 = BRD4 BD1 (Homo sapiens (Human), UniProt O60885); experiment: NanoBRET bromodomain assay, NanoLuc-BRD4-BD1 fusion in HEK293 cells; type: cell-based; conditions: top concentration 10 μM
# BRD4 BD2 = BRD4 BD2 (Homo sapiens (Human), UniProt O60885); experiment: NanoBRET bromodomain assay, NanoLuc-BRD4-BD2 fusion in HEK293 cells;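 note: tracer displacement BRET read in transfected cells after 2 h compound exposure at 37 °C, signal in milliBRET units corrected against no-tracer background wells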
# [1] = Beagle dog PK study 2 of Example 101 (HPβCD based formulation, IV), with clinical observations; type: in vivo; conditions: for concentration at 0.083 h / concentration at 0.25 h / concentration at 0.5 h / concentration at 1 h / concentration at 2 h / concentration at 4 h / concentration at 8 h / concentration at 24 h / AUC(0-inf) / AUC(0-t) / C0 / half-life / MRT inf / Vd: beagle, dog, plasma, iv, 1 mg/kg; for MRT inf: read-out: MRTInf—obs; for Vd: read-out: Vss—obs
# Protocol: The purpose of this study was to examine the pharmacokinetics of Example 101 in beagle dogs. […] An oral PK study was also undertaken in Lewis rats—see Experimental Method C.
# Body weight was recoded prior to dosing, and detailed clinical observations were made prior to dosing and throughout the study, as needed.
# 78.646 mL of HPβCD (20% solution w/v) was then added with vortex and sonication.
# Blood samples (˜0.3 mL) were collected according to a schedule (shown below) by venipuncture of peripheral veins except for the dosing vein, and EDTA-K2 was used as anticoagulant. Within 30 minutes of collection, the samples were centrifuged at approximately 2000×g for 10 minutes at 4° C. to obtain blood plasma. The plasma samples were immediately divided into two aliquots (˜75 μL each), transferred to a cryogenic vial, and stored in a freezer at ˜75±15° C. prior to analysis.
# Blood samples were collected at 0.083, 0.25, 0.5, 1, 2, 4, 8, and 24 h following the initial dosing (0 h).
# The experiments were conducted on a Shimadzu DGU-20A5R and AB API 5500+LC/MS/MS instrument with an Agilent Poroshell EC-C18 4 μm (50×2.1 mm) column. A gradient of 95% water (0.1% formic acid)/95% acetonitrile (0.1% formic acid) was used as the mobile phase. The sample injection volume was 1 μL, and the flow rate was 0.6 mL/min. The gathered data were used for pharmacokinetic calculations using T½, C0, AUClast, AUCinf, MRTinf, CI, Vss, and Number of Points for Regression as parameters.
# [2] = beagle dogs, IV, 0.5 mg/mL in HPβCD based formulation, PK study 2
# [3] = dog PK study 2, IV 1 mg/kg, HPβCD, Test Animal 1, read-out: Plasma concentration
# [4] = dog PK study 2, IV 1 mg/kg, HPβCD, Test Animal 2, read-out: Plasma concentration
# [5] = dog PK study 2, IV 1 mg/kg, HPβCD, Test Animal 3, read-out: Plasma concentration
# [6] = dog PK study 2, IV 1 mg/kg, HPβCD, mean, read-out: Average plasma concentration, Mean
# [7] = dog PK study 2, IV 1 mg/kg, HPβCD, Test Animal 1
# [8] = dog PK study 2, IV 1 mg/kg, HPβCD, Test Animal 2
# [9] = dog PK study 2, IV 1 mg/kg, HPβCD, Test Animal 3
# [10] = dog PK study 2, IV 1 mg/kg, HPβCD, mean
structure (smiles),measurement,setting,value
"CNC(=O)c1[nH]c(C(=O)NC2CCC2)cc1O[C@@H](C)c1ccccc1 (stereo in doubt) [Example 101, N^5-cyclobutyl-N^2-methyl-3-(1-phenylethoxy)-1H-pyrrole-2,5-dicarboxamide]",IC50,BRD4 BD1,≥ 10 µM
same,selectivity for BDII relative to GSK620,BRD4 BD2,more selective than GSK620 for BDII by greater than about two orders of magnitude
same,IC50,"BRD4 BD2; BRD4 BD2 (IC50), NanoBRET, HEK293 cells, top concentration 10 μM",< 50 nM
same,Fold selectivity,"BRD4 BD2; IC50 for BRD4 BD1 divided by IC50 for BRD4 BD2, qualitative if an IC50 is at the upper limit",XXX (Fold >200)
same,clinical observations,[1]; [2],soft feces 8 hours after administration; also recorded: No other clinical observations were made; also recorded: fewer clinical observations in response to Example 101 when prepared in HPβCD
same,plasma concentration as a function of time (FIGS. 1D-1E),[1]; [2],Plasma concentrations decreased similarly over the first 2 h post-administration
same,concentration at 0.083 h,[1]; [3],1270 ng/mL
same,concentration at 0.083 h,[1]; [4],1460 ng/mL
same,concentration at 0.083 h,[1]; [5],1580 ng/mL
same,concentration at 0.083 h,[1]; [6],1440 ng/mL
same,concentration at 0.25 h,[1]; [3],721 ng/mL
same,concentration at 0.25 h,[1]; [4],820 ng/mL
same,concentration at 0.25 h,[1]; [5],985 ng/mL
same,concentration at 0.25 h,[1]; [6],842 ng/mL
same,concentration at 0.5 h,[1]; [3],322 ng/mL
same,concentration at 0.5 h,[1]; [4],498 ng/mL
same,concentration at 0.5 h,[1]; [5],702 ng/mL
same,concentration at 0.5 h,[1]; [6],507 ng/mL
same,concentration at 1 h,[1]; [3],187 ng/mL
same,concentration at 1 h,[1]; [4],140 ng/mL
same,concentration at 1 h,[1]; [5],320 ng/mL
same,concentration at 1 h,[1]; [6],216 ng/mL
same,concentration at 2 h,[1]; [3],49.3 ng/mL
same,concentration at 2 h,[1]; [4],54.1 ng/mL
same,concentration at 2 h,[1]; [5],159 ng/mL
same,concentration at 2 h,[1]; [6],87 ng/mL
same,concentration at 4 h,[1]; [3],4.83 ng/mL
same,concentration at 4 h,[1]; [4],10.8 ng/mL
same,concentration at 4 h,[1]; [5],42.1 ng/mL
same,concentration at 4 h,[1]; [6],19.2 ng/mL
same,concentration at 8 h,[1]; [3],0 ng/mL
same,concentration at 8 h,[1]; [4],2.5 ng/mL
same,concentration at 8 h,[1]; [5],6.58 ng/mL
same,concentration at 8 h,[1]; [6],3.03 ng/mL
same,concentration at 24 h,"[1]; dog PK study 2, IV 1 mg/kg, HPβCD, 24 h, Test Animal 1",0 ng/mL
same,concentration at 24 h,"[1]; dog PK study 2, IV 1 mg/kg, HPβCD, 24 h, Test Animal 2",0 ng/mL
same,concentration at 24 h,"[1]; dog PK study 2, IV 1 mg/kg, HPβCD, 24 h, Test Animal 3",0 ng/mL
same,AUC(0-inf),[1]; [7],723 ng·h/mL
same,AUC(0-t),[1]; [7],719 ng·h/mL
same,C0,[1]; [7],1680 ng/mL
same,half-life,[1]; [7],34.4 min
same,MRT inf,[1]; [7],36.4 min
same,Vd,[1]; [7],0.838 L/kg
same,AUC(0-inf),[1]; [8],850 ng·h/mL
same,AUC(0-t),[1]; [8],844 ng·h/mL
same,C0,[1]; [8],1940 ng/mL
same,half-life,[1]; [8],84.6 min
same,MRT inf,[1]; [8],45.1 min
same,Vd,[1]; [8],0.886 L/kg
same,AUC(0-inf),[1]; [9],1380 ng·h/mL
same,AUC(0-t),[1]; [9],1370 ng·h/mL
same,C0,[1]; [9],2000 ng/mL
same,half-life,[1]; [9],79.8 min
same,MRT inf,[1]; [9],72 min
same,Vd,[1]; [9],0.868 L/kg
same,AUC(0-inf),[1]; [10],984 ng·h/mL
same,AUC(0-t),[1]; [10],977 ng·h/mL
same,C0,[1]; [10],1880 ng/mL
same,half-life,[1]; [10],66 min
same,MRT inf,[1]; [10],51 min
same,Vd,[1]; [10],0.864 L/kg
same,"Average plasma concentration, Mean","[1]; dog PK study 2, IV 1 mg/kg, HPβCD, 24 h, mean",BLOQ
same,AUClast/D,[1]; [7],719 (ng · h/mL)/(mg/kg)
same,AUC—% Extrap—obs,[1]; [7],0.552%
same,Cl_obs,[1]; [7],23.1 mL/min/kg
same,AUClast/D,[1]; [8],844 (ng · h/mL)/(mg/kg)
same,AUC—% Extrap—obs,[1]; [8],0.599%
same,Cl_obs,[1]; [8],19.6 mL/min/kg
same,AUClast/D,[1]; [9],1367 (ng · h/mL)/(mg/kg)
same,AUC—% Extrap—obs,[1]; [9],0.915%
same,Cl_obs,[1]; [9],12.1 mL/min/kg
same,AUClast/D,[1]; [10],977 (ng · h/mL)/(mg/kg)
same,AUC—% Extrap—obs,[1]; [10],0.689%
same,Cl_obs,[1]; [10],18.3 mL/min/kg
